{"source": "patent US9572816B2", "about": "“Method of treatment of disease” (TECHNION RESEARCH AND DEVELOPMENT FOUNDATION LTD., priority 2012, dated 2017)", "key": {"[1]": {"test_system": "rat model of STZ-induced diabetes", "assay": "Cataract by lens opacity (slit-lamp biomicroscope) in rat model of STZ-induced diabetes", "assay_type": "in vivo, Sprague Dawley rats", "settings": "7 weeks", "experimental": "(§1) Eight to ten-week old male Sprague Dawley rats were used in the model. Rat handling was performed according to guidelines of the National Institute of Health (NIH) and the Association for Assessment and Accreditation of Laboratory Animal Care (AAALAC). Diabetes was induced by intraperitoneal injection of 50 mg/kilogram (mg/kg) STZ (in 0.1 molar citrate buffer), which is a dose generally sufficient to destroy all insulin-producing beta cells and induce a diabetic disease-like state. Two weeks later, glucose levels were measured and rats displaying a level lower than 200 mg per deciliter (dL) were excluded from the study. The remaining rats were randomly divided into 3 groups (according to body weight and serum glucose levels): a control group, a corrole group and an LPA group. Each group received a 7-week course of treatment. The control group (13 rats) received water with no active ingredient. The corrole group (14 rats) received 20 mg/kg/day of the corrole designated 1-Fe. 1-Fe was synthesized using the procedure described in Mahammed et al. (Mahammed, Goldberg, & Gross, 2001). […]\nCataract was evaluated a day before termination of the trial in live rats by measurement of opacities of the rat's lenses of each eye with a slit-lamp biomicroscope following the application of tropicamide eye drops. […]\nA rat having a score in at least one eye of 1 or higher was considered to have developed a cataract. The percentage of rats in each group having a cataract (cataract incidence) as determined by opacity measurements for each group is shown in FIG. 1A. […]\nThe degree of cataract for both eyes as determined by averaging each group's cataract scoring of both eyes of each rat as determined by opacity measurement is shown in FIG. 1B.\nAs cataract may develop at a different rate in each of the animals' eyes, the degree of cataract for the rats' worse eye was evaluated. The degree of cataract for the rats' worse eye was determined by averaging each group's cataract scoring of each animal's worse eye as determined by opacity measurement, and is shown in FIG. 1C. […]"}, "[2]": {"test_system": "rat model of STZ-induced diabetes", "assay": "Cataractous damage by histological examination (H&E) of lenses in rat model of STZ-induced diabetes", "assay_type": "in vivo, Sprague Dawley rats", "settings": "7 weeks", "experimental": "as §1, with “treatment.” for “treatment. The control group (13 rats) received water with no active ingredient. The corrole group (14 rats) received 20 mg/kg/day of the corrole designated 1-Fe. 1-Fe was synthesized using the procedure described in Mahammed et al. (Mahammed, Goldberg, & Gross, 2001).”\nThe development of cataractous damage was further evaluated by histological examination. […]\nA rat having a score in at least one eye of 1 or higher was considered to have suffered a cataractous damage. The percentage of rats in each group having a cataractous damage (cataract damage incidence) as determined by histological examination of lenses for each group is shown in FIG. 1D.\nThe degree of cataractous damage for both eyes as determined by averaging each group's cataract scoring of both eyes of each rat as determined by histological examination is shown in FIG. 1E. […]"}, "[3]": {"assay": "Body weight in rat model of STZ-induced diabetes", "assay_type": "in vivo, Sprague Dawley rats", "settings": "STZ-diabetic rats, 7-week treatment", "experimental": "as §1, with “2001). The LPA group (13 rats) received 50 mg/kg/day LPA. LPA was formulated for administration by dissolving in 1 millimolar sodium hydroxide (NaOH) which was then brought to a pH of 7.5.” for “2001).”"}, "[4]": {"test_system": "rat model of STZ-induced diabetes", "assay": "Creatinine clearance rate (CrCl), kidney damage in rat model of STZ-induced diabetes", "assay_type": "in vivo", "settings": "after 7 weeks of treatment", "experimental": "as §1, with “treatment.” for “treatment. The control group (13 rats) received water with no active ingredient. The corrole group (14 rats) received 20 mg/kg/day of the corrole designated 1-Fe. 1-Fe was synthesized using the procedure described in Mahammed et al. (Mahammed, Goldberg, & Gross, 2001).”\nA rat model was performed as in example 1, but rather than testing for eye damage, blood testing was used to test for creatinine levels. […] Creatinine clearance rate (CrCl), an established measure for evaluating renal function, was calculated for rats in all groups of the trial by dividing the amount of creatinine in the urine (mg/minute) by its concentration in the serum (mg/ml).\nCrCl was measured: a) before induction of diabetes; b) 2 weeks later when the treatment commenced; and c) following 7 weeks of treatment (9 weeks from STZ injection)."}, "development of cataract": {"test_system": "development of cataract", "settings": "clinical studies, reported in the literature; cited from earlier work"}, "DN in a rat model": {"test_system": "DN in a rat model", "settings": "administered in levels sufficient to be present in the kidney; cited from earlier work"}}}
{"compound": "O=C(O)CCCCC1CCSS1", "note": "(stereo not drawn) [LPA, alpha lipoic acid]", "values": [{"measurement": "Reduction in degree of cataract, both eyes (opacity score 0-4), relative to control group", "setting": "[1]; 1-Fe 20 mg/kg/day (p=0.014), LPA 50 mg/kg/day (p=0.1)", "result": 28, "unit": "%"}, {"measurement": "Degree of cataract in worse eye relative to control group (in words)", "setting": "[1]; LPA 50 mg/kg/day", "result": "not significantly reduced"}, {"measurement": "Effect on cataract incidence (opacity measurement)", "setting": "[1]; relative to control group, LPA 50 mg/kg/day", "result": "did not have a significant effect"}, {"measurement": "Reduction in degree of cataractous damage, both eyes (histology score 0-4), relative to control group", "setting": "[2]; 1-Fe 20 mg/kg/day, LPA 50 mg/kg/day", "result": 32, "unit": "%"}, {"measurement": "Cataract damage incidence by histological examination, relative to control group", "setting": "[2]; corrole p=0.073", "result": "minimal"}, {"measurement": "Body weight change during the treatment phase", "setting": "[3]", "result": "significant weight loss"}, {"measurement": "CrCl", "setting": "[4]; STZ-diabetic rats, 1-Fe 20 mg/kg/day, LPA 50 mg/kg/day", "result": 1.36, "unit": "mL/min"}, {"measurement": "Increase in creatinine clearance relative to the control group", "setting": "[4]; 1-Fe p=0.027, LPA p=0.078", "result": 89, "unit": "%"}]}
{"compound": "CC1=C(/C=C/C(C)=C/C=C/C(C)=C/C=C/C=C(C)/C=C/C=C(C)/C=C/C2=C(C)CCCC2(C)C)C(C)(C)CCC1", "note": "[beta-carotene]", "values": [{"measurement": "Effect on the development of cataract", "setting": "development of cataract", "result": "no significant effect"}]}
{"compound": "COc1cc(/C=C/C(=O)CC(=O)/C=C/c2ccc(O)c(OC)c2)ccc1O", "note": "[curcumin]", "values": [{"measurement": "Treating DN in a rat model", "setting": "DN in a rat model", "result": "not successful"}]}
{"compound": "O=C1O[C@H]([C@@H](O)CO)C(O)=C1O", "note": "[vitamin C]", "values": [{"measurement": "Effect on the development of cataract", "setting": "development of cataract", "result": "no significant effect"}]}
{"compound": "vitamin E", "values": [{"measurement": "Effect on the development of cataract", "setting": "development of cataract", "result": "no significant effect"}]}
